These results are taken from patent publication US20220288052A1, “COMPOUND FOR COMBINATION TREATMENT” (priority 2019, published 2022).

The target of assay [1] is T1, dopamine transporter (DAT) (Mus musculus, UniProt Q61327).
T1 construct: in vivo DAT transporter occupancy (open bars) in mouse striatum; from tissue; host or cells: mouse striatum (in vivo; C57 mice in the MPTP model)
Description: MPTP model of DAT inhibition (striatal dopamine depletion). Type of assay: in vivo, C57 mouse. Set-up: Dopamine Mean ± SEM / DOPAC Mean ± SEM / HVA Mean ± SEM: unit not given here. The settings on record: MPTP 25 mg/kg s.c. alone. From the text:
In this model compound (I) induced protection against the dopamine depletion induced by the entry of the MPTP metabolite MPP+ into the dopamine terminals of the mouse C57 striatal tissue.

The subject of assay [2] is NMRI mice. Description: Locomotor activity (mLA). It is filed as in vivo, mouse. The settings on record: mLA; for MED: p.o. 0 min. The protocol:
FIG. 8: The effects of compound (I) on locomotor activity. Compound (I) p.o. in NMRI mice. TSE Motility.
(§1) Compound (I) was tested in a classical test often used to measure the ability of a compound to block the reuptake of 5-HT in vivo: nialamide-induced 5-HT syndrome (m5-HT). In addition, compound (I) was tested in a locomotor activity paradigm (mLA) as a measure of its ability to block the reuptake of DA and therefore induce motility. It is generally accepted that >60% DA transporter blockade is needed to induce increased motility in this test.

The test system of assay [3] is nialamide pre-treated mice. Description: Nialamide-induced 5-HT syndrome (m5-HT). It is filed as in vivo, mouse. Particulars: m5-HT, p.o. 0 min. The protocol: 50 mg/kg nialamide s.c. t=120 min. Compound (I) p.o. t=0. n=4.
as §1

The next assay concerns C57 mice. Kind of assay: Mouse tail suspension test (mTST). Type of assay: in vivo. The settings on record: i.p. 30 min.
Assay [4] has as its system NMRI mice. Kind of assay: Mouse forced swim test (mFST). It is filed as in vivo. Particulars: mFST (NMRI), p.o. 60 min. The protocol:
Compound (I) was tested in two of the most widely used behavioural screens for predicting antidepressant effects in the clinic: the mouse forced swim test (mFST) and mouse tail suspension test (mTST).
In order to further characterize the role played by 5-HT and DA-ergic neurotransmission in the antidepressant-like effects of compound (I), the potential involvement of 5-HT1A and D1 receptors was investigated in the mFST.

The subject of the next assay is mice. Kind of assay: Mouse zero maze (mZM). It is filed as in vivo. The settings on record: mZero maze, p.o., 7 days OD. As for the experimental part: Mice were treated (peroral administration) for 7 days with either, vehicle, duloxetine (10 mg/kg), and compound I (0.1 mg/kg, 1 mg/kg, and 3 mg/kg) (n=8 in each group).
(§2) Compound (I) was tested in three widely used behavioural screens for predicting anxiolytic effects in the clinic: the mouse marble burying test (mMB), mouse zero maze (mZM) and mouse stress-induced hyperthermia test (mSIH).

The test system of assay [5] is NMRI mice. Kind of assay: Mouse marble burying test (mMB). It is filed as in vivo. The settings on record: Marble burying, p.o., −60 min. The protocol:
FIG. 13: Marble burying. In the marble-burying test mice exposed to a novel object (marbles) bury them in the sawdust floor covering. Compounds showing anxiolytic-like activity decrease the number of buried marbles at non-sedative doses. […] The number of marbles covered by sawdust was counted at the end of a 60-min session.
as §2

The subject of assay [6] is NMRI mice. Description: Mouse stress-induced hyperthermia test (mSIH). It is filed as in vivo. Particulars: mSIH, p.o., −60 min. The protocol:
FIG. 14: Stress-induced hyperthermia. When mice are confronted with a stress-full event, the body temperature rises.
as §2

Molecules are shown by their SMILES.

T1 sequence (Q61327 whole entry): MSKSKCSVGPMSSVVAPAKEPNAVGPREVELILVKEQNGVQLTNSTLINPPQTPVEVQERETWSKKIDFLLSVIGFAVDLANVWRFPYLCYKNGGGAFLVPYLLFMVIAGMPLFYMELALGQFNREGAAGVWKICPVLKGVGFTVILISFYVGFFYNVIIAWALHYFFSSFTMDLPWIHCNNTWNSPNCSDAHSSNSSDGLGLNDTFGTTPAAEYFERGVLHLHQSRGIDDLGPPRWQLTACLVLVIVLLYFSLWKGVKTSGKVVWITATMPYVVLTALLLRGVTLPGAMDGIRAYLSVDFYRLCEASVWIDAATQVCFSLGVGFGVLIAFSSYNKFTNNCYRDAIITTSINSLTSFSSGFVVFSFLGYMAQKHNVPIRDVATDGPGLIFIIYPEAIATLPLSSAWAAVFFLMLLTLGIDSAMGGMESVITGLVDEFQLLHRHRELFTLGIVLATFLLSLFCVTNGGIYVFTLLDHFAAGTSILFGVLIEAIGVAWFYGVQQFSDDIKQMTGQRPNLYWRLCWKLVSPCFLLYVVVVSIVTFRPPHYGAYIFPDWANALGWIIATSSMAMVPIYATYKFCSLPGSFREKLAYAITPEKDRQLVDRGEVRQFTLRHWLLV
Description for C57 mice: C57 males, 25-28 g, Taconic, 16/8-06. Mice acclimatized to ground floor 5 days before testing. Mice saline injected once a day twice before test day. 22° C., N=7-8.

Consider `CN1CC=C(c2ccccc2)CC1` [MPTP, reference compound], for which, in assay [1], the “DOPAC Mean ± SEM” value is recorded as 1 ± 0.2 and the “HVA Mean ± SEM” value stood at 0.7 ± 0.1. In assay [1] (mouse striatal tissue), the “Dopamine Mean ± SEM” value was determined as 4.2 ± 0.6.

`CN(C)CCCC1(c2ccc(F)cc2)OCc2cc(C#N)ccc21` (stereo not drawn) [Citalopram, reference compound]: the MED was more than 60 mg/kg in the assay on NMRI mice [2], 10 mg/kg in assay [3], less than 5 mg/kg with C57 mice and 10 mg/kg with NMRI mice [4].

Regarding `CNCC[C@H](Oc1cccc2ccccc12)c1cccs1` [Duloxetine, reference compound], in the assay with NMRI mice [2] (p.o.), the “Effect on locomotor activity” value was “without effect”. For the same compound, the MED in the assay on NMRI mice [2] is more than 60 mg/kg; in assay [3] it was 10 mg/kg; in the assay with C57 mice, 10 mg/kg; in the assay with mice, less than 10 mg/kg; with NMRI mice [5] it was 10 mg/kg; with NMRI mice [6], more than 30 mg/kg. In the assay with NMRI mice [4], this compound registered an MED of 30 mg/kg.
